Data: patent US20230390304A1, “Method and Composition for Treating Epilepsy” (Lipocine Inc., priority 2022, published 2023)

Test: Solubility of 3α-OH-5β-pregnan-20-one in SBE-β-CD (cyclodextrin) solution
Assay type: physicochemical
Method: When utilizing sulfobutylether-β-cyclodextrin (SBE-3-CD) oral compositions including solubilized or semi solid 3α-OH-5β-pregnan-20-one, it may be challenging to load proper amounts of 3α-OH-5β-pregnan-20-one so as to deliver effective serum levels of 3α-OH-5β-pregnan-20-one due to limitations with respect to 3α-OH-5β-pregnan-20-one solubility in various cyclodextrin solutions including SBE-β-CD (e.g. only ˜6 mg/ml of 3α-OH-5β-pregnan-20-one solubility in 24% w/v non-encapsulated SBE-β-CD solution). The solubilized fraction of 3α-OH-5β-pregnan-20-one began to decline, as observed by precipitation, when 3α-OH-5β-pregnan-20-one concentration was above 8 mg/ml. The amount of 3α-OH-5β-pregnan-20-one in the cyclodextrin solution can only be enabled by about 0.6% w/w loading amount of the composition fill. Moreover, high cyclodextrin amounts required to solubilize 3α-OH-5β-pregnan-20-one also present safety concerns. In some aspects, the compositions and dosage forms of this invention can comprise higher 3α-OH-5β-pregnan-20-one loading amounts than ones formulated in non-encapsulated SBE-β-CD or any cyclodextrin solution composition.

Structure (SMILES): CC(=O)[C@H]1CC[C@H]2[C@@H]3CC[C@@H]4C[C@H](O)CC[C@]4(C)[C@H]3CC[C@]12C [3α-OH-5β-pregnan-20-one]
- 3α-OH-5β-pregnan-20-one concentration above which the solubilized fraction began to decline, as observed by precipitation (cyclodextrin (SBE-β-CD) solution): above 8 mg/ml
- loading amount of the composition fill enabled in the cyclodextrin solution (cyclodextrin solution): about 0.6 % w/w
- 3α-OH-5β-pregnan-20-one solubility (in 24% w/v non-encapsulated SBE-β-CD solution): ~6 mg/mL
